# Data as given in US20130303509A1, “NAMPT INHIBITORS” (AbbVie Inc., priority 2012, published 2013).
# Tested on: PC3 cells
# Experiment: NAMPT Cell Proliferation Assay
# Assay type: cell-based
# Details: Homo sapiens, PC-3, 120 h, 5 days incubation, cell viability by Cell Titer Glo
# Method in brief: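 Seeded at 500 cells/well in RPMI with 10% heat-inactivated FBS and left to attach overnight at 37° C, 5% CO2. Compounds were added as 10-fold dilutions […] for 5 days, then viability was read by CellTiter-Glo. IC50s came from sigmoidal fits of percent inhibition.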
row,IC50 [nM],SMILES
1,6.27,"CCC(C)(C)C(=O)N1CCC(c2ccc(NC(=O)[C@H]3CCN(c4cccnn4)C3)cc2)CC1 [Example 718, (3S)-N-{4-[1-(2,2-dimethylbutanoyl)piperidin-4-yl]phenyl}-1-(pyridazin-3-yl)pyrrolidine-3-carboxamide]"
2,9.63,"Cc1ccc(C(=O)N2CCC(c3ccc(NC(=O)[C@H]4CCN(c5cccnn5)C4)cc3)CC2)cc1F [Example 719, (3S)-N-{4-[1-(3-fluoro-4-methylbenzoyl)piperidin-4-yl]phenyl}-1-(pyridazin-3-yl)pyrrolidine-3-carboxamide]"
3,8.57,"COc1cccc(C(=O)N2CCC(c3ccc(NC(=O)[C@H]4CCN(c5cccnn5)C4)cc3)CC2)c1 [Example 720, (3S)-N-{4-[1-(3-methoxybenzoyl)piperidin-4-yl]phenyl}-1-(pyridazin-3-yl)pyrrolidine-3-carboxamide]"
4,8.39,"O=C(Nc1ccc(C2CCN(C(=O)Cc3ccccc3Cl)CC2)cc1)[C@H]1CCN(c2cccnn2)C1 [Example 721, (3S)-N-(4-{1-[(2-chlorophenyl)acetyl]piperidin-4-yl}phenyl)-1-(pyridazin-3-yl)pyrrolidine-3-carboxamide]"
5,84.8,"COCCOCC(=O)N1CCC(c2ccc(NC(=O)[C@H]3CCN(c4cccnn4)C3)cc2)CC1 [Example 722, (3S)-N-(4-{1-[(2-methoxyethoxy)acetyl]piperidin-4-yl}phenyl)-1-(pyridazin-3-yl)pyrrolidine-3-carboxamide]"
6,3.51,"CC(C)(C)CC(=O)N1CCC(c2ccc(NC(=O)[C@H]3CCN(c4cccnn4)C3)cc2)CC1 [Example 723, (3S)-N-{4-[1-(3,3-dimethylbutanoyl)piperidin-4-yl]phenyl}-1-(pyridazin-3-yl)pyrrolidine-3-carboxamide]"
7,80.9,"CC(=O)N[C@@H](CC(C)C)C(=O)N1CCC(c2ccc(NC(=O)[C@H]3CCN(c4cccnn4)C3)cc2)CC1 [Example 724, (3S)-N-{4-[1-(N-acetyl-L-leucyl)piperidin-4-yl]phenyl}-1-(pyridazin-3-yl)pyrrolidine-3-carboxamide]"
8,4.01,"O=C(Nc1ccc(C2CCN(C(=O)c3cccc(F)c3)CC2)cc1)[C@H]1CCN(c2cccnn2)C1 [Example 725, (3S)-N-{4-[1-(3-fluorobenzoyl)piperidin-4-yl]phenyl}-1-(pyridazin-3-yl)pyrrolidine-3-carboxamide]"
9,32.7,"N#Cc1ccc(C(=O)N2CCC(c3ccc(NC(=O)[C@H]4CCN(c5cccnn5)C4)cc3)CC2)cc1 [Example 726, (3S)-N-{4-[1-(4-cyanobenzoyl)piperidin-4-yl]phenyl}-1-(pyridazin-3-yl)pyrrolidine-3-carboxamide]"
10,4.6,"COc1ccccc1C(=O)N1CCC(c2ccc(NC(=O)[C@H]3CCN(c4cccnn4)C3)cc2)CC1 [Example 727, (3S)-N-{4-[1-(2-methoxybenzoyl)piperidin-4-yl]phenyl}-1-(pyridazin-3-yl)pyrrolidine-3-carboxamide]"
11,6.97,"Cc1cccc(C(=O)N2CCC(c3ccc(NC(=O)[C@H]4CCN(c5cccnn5)C4)cc3)CC2)c1C [Example 728, (3S)-N-{4-[1-(2,3-dimethylbenzoyl)piperidin-4-yl]phenyl}-1-(pyridazin-3-yl)pyrrolidine-3-carboxamide]"
12,13.5,"CC(C)c1ccc(C(=O)N2CCC(c3ccc(NC(=O)[C@H]4CCN(c5cccnn5)C4)cc3)CC2)cc1 [Example 729, (3S)-N-(4-{1-[4-(propan-2-yl)benzoyl]piperidin-4-yl}phenyl)-1-(pyridazin-3-yl)pyrrolidine-3-carboxamide]"
13,6.81,"O=C(Nc1ccc(C2CCN(C(=O)C3CCCCC3)CC2)cc1)[C@H]1CCN(c2cccnn2)C1 [Example 730, (3S)-N-{4-[1-(cyclohexylcarbonyl)piperidin-4-yl]phenyl}-1-(pyridazin-3-yl)pyrrolidine-3-carboxamide]"
14,0.5,"O=C(Nc1ccc(C2CCN(C(=O)c3cccs3)CC2)cc1)[C@H]1CCN(c2cccnn2)C1 [Example 731, (3S)-1-(pyridazin-3-yl)-N-{4-[1-(thiophen-2-ylcarbonyl)piperidin-4-yl]phenyl}pyrrolidine-3-carboxamide]"
15,29.9,"O=C(Nc1ccc(C2CCN(C(=O)c3ccc(O)cc3)CC2)cc1)[C@H]1CCN(c2cccnn2)C1 [Example 732, (3S)-N-{4-[1-(4-hydroxybenzoyl)piperidin-4-yl]phenyl}-1-(pyridazin-3-yl)pyrrolidine-3-carboxamide]"
16,37.5,"N#Cc1cccc(C(=O)N2CCC(c3ccc(NC(=O)[C@H]4CCN(c5cccnn5)C4)cc3)CC2)c1 [Example 733, (3S)-N-{4-[1-(3-cyanobenzoyl)piperidin-4-yl]phenyl}-1-(pyridazin-3-yl)pyrrolidine-3-carboxamide]"
17,8.33,"O=C(Nc1ccc(C2CCN(C(=O)CC(F)(F)F)CC2)cc1)[C@H]1CCN(c2cccnn2)C1 [Example 734, (3S)-1-(pyridazin-3-yl)-N-{4-[1-(3,3,3-trifluoropropanoyl)piperidin-4-yl]phenyl}pyrrolidine-3-carboxamide]"
18,68.9,"COCC(=O)N1CCC(c2ccc(NC(=O)[C@H]3CCN(c4cccnn4)C3)cc2)CC1 [Example 735, (3S)-N-{4-[1-(methoxyacetyl)piperidin-4-yl]phenyl}-1-(pyridazin-3-yl)pyrrolidine-3-carboxamide]"
19,8.09,"CC(C)CC(=O)N1CCC(c2ccc(NC(=O)[C@H]3CCN(c4cccnn4)C3)cc2)CC1 [Example 736, (3S)-N-{4-[1-(3-methylbutanoyl)piperidin-4-yl]phenyl}-1-(pyridazin-3-yl)pyrrolidine-3-carboxamide]"
20,1860,"N#Cc1ncccc1N1CC(C(=O)Nc2ccc(C3CCN(C(=O)c4ccccc4)CC3)cc2)C1 [Example 737, N-[4-(1-benzoylpiperidin-4-yl)phenyl]-1-(2-cyanopyridin-3-yl)azetidine-3-carboxamide]"
21,854,"N#Cc1ccncc1N1CC(C(=O)Nc2ccc(C3CCN(C(=O)c4ccccc4)CC3)cc2)C1 [Example 738, N-[4-(1-benzoylpiperidin-4-yl)phenyl]-1-(4-cyanopyridin-3-yl)azetidine-3-carboxamide]"
22,7310,"Cc1cc(F)ncc1N1CC(C(=O)Nc2ccc(C3CCN(C(=O)c4ccccc4)CC3)cc2)C1 [Example 739, N-[4-(1-benzoylpiperidin-4-yl)phenyl]-1-(6-fluoro-4-methylpyridin-3-yl)azetidine-3-carboxamide]"
23,914,"N#Cc1cncc(N2CC(C(=O)Nc3ccc(C4CCN(C(=O)c5ccccc5)CC4)cc3)C2)c1 [Example 740, N-[4-(1-benzoylpiperidin-4-yl)phenyl]-1-(5-cyanopyridin-3-yl)azetidine-3-carboxamide]"
24,181,"Cc1cncc(N2CC(C(=O)Nc3ccc(C4CCN(C(=O)c5ccccc5)CC4)cc3)C2)c1 [Example 741, N-[4-(1-benzoylpiperidin-4-yl)phenyl]-1-(5-methylpyridin-3-yl)azetidine-3-carboxamide]"
25,734,"CC(C)Cn1cc(-c2ncc(C(=O)N[C@H]3CCN(c4cccnn4)C3)s2)cn1 [Example 742, 2-[1-(2-methylpropyl)-1H-pyrazol-4-yl]-N-[(3S)-1-(pyridazin-3-yl)pyrrolidin-3-yl]-1,3-thiazole-5-carboxamide]"
